According to patent publication US20170107179A1 (Tetraphase Pharmaceuticals, Inc., priority 2010, published 2017):

Columns and labels:
[1] = tested on: Crl:SKH1-hr hairless mouse; test: In vivo phototoxicity, Crl:SKH1-hr hairless mouse model; details: hairless mice, intracutaneous 0.0375 or 0.375 mg/mouse, UVA 20 J/cm^2, observed up to 3 days
Description: To estimate its potential to produce phototoxicity in vivo, Compound 102 was tested in validated in vivo and in vitro models of acute phototoxic activity at Charles River Laboratories (See Spielmann, H., et al., The second ECVAM workshop on phototoxicity testing. The report and recommendations of ECVAM workshop 42. Altern Lab Anim, 2000. 28(6): p. 777-814; and Peters, B. and H. G. Holzhutter, In vitro phototoxicity testing: development and validation of a new concentration response analysis software and biostatistical analyses related to the use of various prediction models. Altern Lab Anim, 2002. 30(4): p. 415-32, the entire teachings of both are incorporated herein by reference).
A vehicle control group was injected with normal saline. The pH of compound formulations was adjusted to 6.5±0.5 prior to injection. Immediately after administration, mice were lightly anesthetized via intraperitoneal injection of chloral hydrate in deionized water and then positioned on plastic tubing with laboratory tape. An aluminum foil mask with a single hole with a diameter of 1.3 cm (1.3 cm^2) was placed over the mid-dorsum injection site before UVA exposure. The distal administration site was shielded from UVA exposure. A UVA dose of no less than 20.0 and no more than 20.1 J/cm^2 at an intensity of 5±1 mW/cm^2 at the level of the mice was delivered during the exposure period. […]

E. coli DH10B EC971 LacZ = test: MIC, E. coli DH10B recombinantly expressing control gene; details: E. coli DH10B, arabinose-induced, ampicillin in medium
[2] = tested on: E. coli DH10B EC1153 Tet(X); test: MIC, E. coli DH10B recombinantly expressing tetracycline-resistance gene; details: arabinose-induced, ampicillin in medium
E. coli DH10B EC969 TetM = test: as above; details: arabinose-induced, ampicillin in medium
E. coli DH10B EC970 TetK = test: as above; details: arabinose-induced, ampicillin in medium
[3] = tested on: E. coli DH10B EC1082 TetA; test: as above; details: arabinose-induced, ampicillin in medium
[4] = tested on: E. coli DH10B EC1083 TetB; test: as above; details: arabinose-induced, ampicillin in medium
S. aureus SA101 = assay type: cell-based; details: SA101, plates containing compound at 5× the MIC
S. pneumoniae SP106 = assay type: cell-based; details: SP106, plates containing compound at 5× the MIC, 5% sheep blood
[5] = tested on: Gram-negative and Gram-positive organisms (clinical isolates); test: Broth microdilution MIC against clinical isolates (CLSI M7-A8), Table 9; assay type: cell-based
M. catarrhalis (n = 50) = test: Broth microdilution MIC, respiratory pathogens (Table 13)
Gram-positive pathogens = test: Broth microdilution MIC, respiratory/skin pathogens (Table 12)
[6] = Staphylococcus aureus (MRSA PVL+), n=30
[7] = Stenotrophomonas maltophilia, n=29

`CN(C)c1ccc(O)c2c1C[C@H]1C[C@H]3[C@H](N(C)C)C(O)=C(C(N)=O)C(=O)[C@@]3(O)C(O)=C1C2=O` [Minocycline, minocycline] was tested, and the “phototoxicity, skin reactions at site of UVA exposure” value [1] was “no skin reaction at either dose”, the “MIC EC971 LacZ” value (E. coli DH10B EC971 LacZ) was 0.5 and the “MIC EC1153 Tet(X)” value [2] was 4. The “MIC EC969 TetM” value (E. coli DH10B EC969 TetM) was 64, the “MIC EC970 TetK” value (E. coli DH10B EC970 TetK) was 1 and the “MIC EC1082 TetA” value [3] was 8. The “MIC EC1083 TetB” value [4] was 16.

In the case of `CO[C@H]1/C=C/O[C@@]2(C)Oc3c(C)c(O)c4c(O)c(c(/C=N/N5CCN(C)CC5)c(O)c4c3C2=O)NC(=O)/C(C)=C\C=C\[C@H](C)[C@H](O)[C@@H](C)[C@@H](O)[C@@H](C)[C@H](OC(C)=O)[C@@H]1C` [rifampin, reference compound], the spontaneous resistance frequency (S. aureus SA101) is reported as 2.0×10^−8 and the spontaneous resistance frequency (S. pneumoniae SP106) is reported as 2.88×10^−7.

Gentamicin was tested, and the MIC50 ([5]; Acinetobacter lwoffii, n=29) was “≦0.25 μg/ml”, the MIC90 ([5]; Acinetobacter lwoffii, n=29) was 1 µg/mL and the MIC50 ([5]; Enterobacter aerogenes, n=30) was “≦0.25 μg/ml”. For the same molecule, the MIC90 ([5]; Enterobacter aerogenes, n=30) was 0.5 µg/mL, the MIC50 ([5]; Enterobacter cloacae, n=29) was 0.5 µg/mL and the MIC90 ([5]; Enterobacter cloacae, n=29) was over 8 µg/mL. The MIC50 ([5]; Escherichia coli, n=40) was 2 µg/mL, the MIC90 ([5]; Escherichia coli, n=40) was over 8 µg/mL and the MIC50 ([5]; Kiebsielia oxytoca, n=30) was 0.5 µg/mL. It also gave an MIC90 ([5]; Kiebsielia oxytoca, n=30) of 2 µg/mL, an MIC50 ([5]; Klebsiella pneumonia, n=27) of over 8 µg/mL and an MIC90 ([5]; Klebsiella pneumonia, n=27) of over 8 µg/mL. It also gave an MIC50 ([5]; Morganella morganii, n=30) of 1 µg/mL, an MIC90 ([5]; Morganella morganii, n=30) of over 8 µg/mL and an MIC50 ([5]; Proteus vulgaris, n=29) of 1 µg/mL. For the same molecule, the MIC90 ([5]; Proteus vulgaris, n=29) was over 8 µg/mL, the MIC50 ([5]; Salmonella species, n=30) was 0.5 µg/mL and the MIC90 ([5]; Salmonella species, n=30) was 1 µg/mL. It also gave an MIC50 ([5]; Serratia marcescens, n=30) of 0.5 µg/mL, an MIC90 ([5]; Serratia marcescens, n=30) of 1 µg/mL and an MIC50 ([5]; Shigella species, n=30) of 1 µg/mL. For the same molecule, the MIC90 ([5]; Shigella species, n=30) was 1 µg/mL, the MIC50 [5, 6] was 0.25 µg/mL and the MIC90 [5, 6] was 0.5 µg/mL. The MIC50 [5, 7] was over 8 µg/mL, the MIC90 [5, 7] was over 8 µg/mL and the MIC50 (M. catarrhalis (n = 50)) was 0.12 µg/mL. It also gave an MIC90 (M. catarrhalis (n = 50)) of 0.12 µg/mL, an MIC50 (Gram-positive pathogens; CoNS, MRCoNS (n = 26)) of 0.25 µg/mL and an MIC90 (Gram-positive pathogens; CoNS, MRCoNS (n = 26)) of over 8 µg/mL. For the same molecule, the MIC50 (Gram-positive pathogens; CoNS, MSCoNS (n = 26)) was 0.12 µg/mL, the MIC90 (Gram-positive pathogens; CoNS, MSCoNS (n = 26)) was 0.25 µg/mL and the MIC50 (Gram-positive pathogens; E. faecalis, VAN NS (n = 48)) was over 8 µg/mL. The MIC90 (Gram-positive pathogens; E. faecalis, VAN NS (n = 48)) was over 8 µg/mL, the MIC50 (Gram-positive pathogens; E. faecalis, VAN S (n = 53)) was over 8 µg/mL and the MIC90 (Gram-positive pathogens; E. faecalis, VAN S (n = 53)) was over 8 µg/mL. It also gave an MIC50 (Gram-positive pathogens; E. faecium, VAN NS (n = 51)) of 8 µg/mL, an MIC90 (Gram-positive pathogens; E. faecium, VAN NS (n = 51)) of over 8 µg/mL and an MIC50 (Gram-positive pathogens; E. faecium, VAN S (n = 49)) of 8 µg/mL. It also gave an MIC90 (Gram-positive pathogens; E. faecium, VAN S (n = 49)) of over 8 µg/mL, an MIC50 (Gram-positive pathogens; S. aureus, MSSA (n = 50)) of 0.25 µg/mL and an MIC90 (Gram-positive pathogens; S. aureus, MSSA (n = 50)) of 0.5 µg/mL. The MIC50 (Gram-positive pathogens; S. saprophyticus (n = 36)) was “≦0.06 mg/mL” and the MIC90 (Gram-positive pathogens; S. saprophyticus (n = 36)) was “≦0.06 mg/mL”.
